“And” between values parts separate entries of the source, which are not always exact repeats. Equal entries are not always repeated.
Tests used:
Experiment in all cases: Kinase Profiler 10 μM panel
[1] = target: Pim-3(h) (Homo sapiens (Human), UniProt Q86V86)
Protocol: (§1) In vitro kinase assays were conducted using Kinase Profiler services provided by Eurofins. The experimental method was as follows: the small molecule compound to be tested (0.001-10 μM), the protein kinase to be tested were incubated with a buffer containing substrate, 10 mM magnesium acetate, and [γ-^33P-ATP], the reaction was started by adding Mg\TPmix, after incubation for a period of time at room temperature, a 3% phosphate solution was added to the buffer to stop the reaction. Subsequently, 10 μL of the reaction mixture was quantitatively pipetted onto P30 filter paper, which was washed three times with 75 mM phosphate solution and then once with methanol. The P30 filter paper was air-dried and scintillation fluid was added for scintillation counting.

[2] = target: EGFR(L858R)(h) (Homo sapiens (Human), UniProt P00533, L858R)
Protocol: as §1

[3] = target: SRPK2(h) (Homo sapiens (Human), UniProt P78362)
Protocol: The experimental method was as follows: the small molecule compound to be tested (0.001-10 μM), the protein kinase to be tested were incubated with a buffer containing substrate, 10 mM magnesium acetate, and [γ-^33P-ATP], the reaction was started by adding Mg\TPmix, after incubation for a period of time at room temperature, a 3% phosphate solution was added to the buffer to stop the reaction. Subsequently, 10 μL of the reaction mixture was quantitatively pipetted onto P30 filter paper, which was washed three times with 75 mM phosphate solution and then once with methanol. The P30 filter paper was air-dried and scintillation fluid was added for scintillation counting.

[4] = target: BTK(h) (Homo sapiens (Human), UniProt Q06187)
Protocol: as §1

[5] = target: ROCK-II(r) (Rattus norvegicus (Rat), UniProt Q62868)
Protocol: as §1

[6] = target: Syk(h) (Homo sapiens (Human), UniProt P43405)
Protocol: as §1

[7] = target: Abl (M351T)(h) (Homo sapiens (Human), UniProt P00519, M351T)
Protocol: as §1

[8] = target: Tec(h) activated (Homo sapiens (Human), UniProt P42680)
Protocol: as §1

[9] = target: STK32C(h) (Homo sapiens (Human), UniProt Q86UX6)
Protocol: as §1

[10] = target: FGFR2(h) (Homo sapiens (Human), UniProt P21802)
Protocol: as §1

[11] = target: KDR(h) (Homo sapiens (Human), UniProt P35968)
Protocol: as §1

[12] = target: Rsk3(h) (Homo sapiens (Human), UniProt Q15349)
Sequence of Rsk3(h) (Q15349 whole entry): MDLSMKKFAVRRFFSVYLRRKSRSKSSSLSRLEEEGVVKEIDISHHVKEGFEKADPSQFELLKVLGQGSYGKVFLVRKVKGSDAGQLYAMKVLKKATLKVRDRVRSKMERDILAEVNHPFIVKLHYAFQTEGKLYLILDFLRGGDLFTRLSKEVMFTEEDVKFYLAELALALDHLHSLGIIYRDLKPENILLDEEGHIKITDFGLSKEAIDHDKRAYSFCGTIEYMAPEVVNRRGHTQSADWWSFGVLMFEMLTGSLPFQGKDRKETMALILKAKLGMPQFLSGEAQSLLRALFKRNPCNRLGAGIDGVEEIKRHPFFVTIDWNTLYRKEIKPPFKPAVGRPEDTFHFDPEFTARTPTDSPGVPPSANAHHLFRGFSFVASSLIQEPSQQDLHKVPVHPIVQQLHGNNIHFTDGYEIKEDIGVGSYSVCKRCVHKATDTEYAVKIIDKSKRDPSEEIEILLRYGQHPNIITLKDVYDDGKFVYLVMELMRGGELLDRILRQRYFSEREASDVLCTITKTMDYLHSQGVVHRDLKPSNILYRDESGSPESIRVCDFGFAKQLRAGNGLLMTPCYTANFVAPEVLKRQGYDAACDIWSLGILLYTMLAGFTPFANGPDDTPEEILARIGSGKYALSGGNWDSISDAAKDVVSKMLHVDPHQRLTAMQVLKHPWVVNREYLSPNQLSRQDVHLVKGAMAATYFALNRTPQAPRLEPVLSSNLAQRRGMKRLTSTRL
Protocol: as §1

[13] = target: RIPK1(h) (Homo sapiens (Human), UniProt Q13546)
Protocol: as §1

[14] = target: CDK16/cyclinY(h) (Homo sapiens (Human), UniProt Q00536)
Protocol: as §1

[15] = target: SGK(h) (Homo sapiens (Human), UniProt O00141)
Protocol: as §1

[16] = target: GRK7(h) (Homo sapiens (Human), UniProt Q8WTQ7)
Protocol: as §1

[17] = target: PEK(h) (Homo sapiens (Human), UniProt Q9NZJ5)
Sequence of PEK(h) (Q9NZJ5 30-1116): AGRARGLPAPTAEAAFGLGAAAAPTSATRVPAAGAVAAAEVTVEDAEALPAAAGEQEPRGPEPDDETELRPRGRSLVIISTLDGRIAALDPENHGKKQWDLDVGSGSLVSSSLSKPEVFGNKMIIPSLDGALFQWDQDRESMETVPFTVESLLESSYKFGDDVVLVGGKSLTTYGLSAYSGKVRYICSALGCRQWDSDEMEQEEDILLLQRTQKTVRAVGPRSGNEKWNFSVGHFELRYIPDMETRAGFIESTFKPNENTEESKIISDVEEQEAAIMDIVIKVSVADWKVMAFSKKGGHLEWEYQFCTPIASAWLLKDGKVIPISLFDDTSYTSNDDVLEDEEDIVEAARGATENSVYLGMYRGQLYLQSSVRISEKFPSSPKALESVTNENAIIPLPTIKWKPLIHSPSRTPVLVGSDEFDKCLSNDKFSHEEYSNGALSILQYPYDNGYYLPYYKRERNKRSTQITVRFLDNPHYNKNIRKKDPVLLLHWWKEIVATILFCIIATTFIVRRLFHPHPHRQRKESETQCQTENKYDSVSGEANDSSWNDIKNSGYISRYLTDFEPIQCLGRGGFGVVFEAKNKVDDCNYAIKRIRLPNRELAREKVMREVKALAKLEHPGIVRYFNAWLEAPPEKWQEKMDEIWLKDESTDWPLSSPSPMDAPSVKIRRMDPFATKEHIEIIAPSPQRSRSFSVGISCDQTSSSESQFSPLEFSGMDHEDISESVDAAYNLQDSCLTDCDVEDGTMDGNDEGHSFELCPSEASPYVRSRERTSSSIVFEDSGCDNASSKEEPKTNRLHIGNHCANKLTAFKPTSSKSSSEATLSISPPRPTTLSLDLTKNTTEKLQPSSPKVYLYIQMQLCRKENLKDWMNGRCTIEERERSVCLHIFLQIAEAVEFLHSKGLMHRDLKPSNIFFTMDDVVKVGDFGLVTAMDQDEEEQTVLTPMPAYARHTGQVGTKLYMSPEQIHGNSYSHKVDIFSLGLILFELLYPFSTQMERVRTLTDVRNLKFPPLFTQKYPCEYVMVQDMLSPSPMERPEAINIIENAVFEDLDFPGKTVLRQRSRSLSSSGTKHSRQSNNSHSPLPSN
Protocol: as §1

[18] = target: CLK2(h) (Homo sapiens (Human), UniProt P49760)
Protocol: as §1

[19] = target: cKit(D816H)(h) (Homo sapiens (Human), UniProt P10721, D816H)
Protocol: as §1

[20] = target: Plk1(h) (Homo sapiens (Human), UniProt P53350)
Protocol: as §1

[21] = target: Arg(m) (Mus musculus (Mouse), UniProt Q4JIM5)
Protocol: as §1

[22] = target: JNK3(h) (Homo sapiens (Human), UniProt P53779)
Sequence of JNK3(h) (P53779 whole entry): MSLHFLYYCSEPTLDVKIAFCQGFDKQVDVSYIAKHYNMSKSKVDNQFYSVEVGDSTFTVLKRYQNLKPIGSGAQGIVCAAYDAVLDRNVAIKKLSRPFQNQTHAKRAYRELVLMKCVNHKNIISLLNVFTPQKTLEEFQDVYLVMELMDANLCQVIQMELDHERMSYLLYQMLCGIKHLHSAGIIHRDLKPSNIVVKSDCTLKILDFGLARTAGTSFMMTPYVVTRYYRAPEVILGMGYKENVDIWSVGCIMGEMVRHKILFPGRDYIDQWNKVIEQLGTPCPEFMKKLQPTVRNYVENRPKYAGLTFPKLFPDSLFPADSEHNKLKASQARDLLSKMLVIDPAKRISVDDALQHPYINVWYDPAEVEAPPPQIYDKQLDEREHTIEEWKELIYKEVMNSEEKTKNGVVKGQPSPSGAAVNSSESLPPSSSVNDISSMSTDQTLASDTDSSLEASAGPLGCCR
Protocol: as §1

[23] = target: GSK3β(h) (Homo sapiens (Human), UniProt P49841)
Protocol: as §1

[24] = target: PI3 Kinase (p110a(H1047R)/p85a)(m) (Mus musculus (Mouse), UniProt P42337, H1047R)
Sequence of PI3 Kinase (p110a(H1047R)/p85a)(m) (P42337 whole entry H1047R): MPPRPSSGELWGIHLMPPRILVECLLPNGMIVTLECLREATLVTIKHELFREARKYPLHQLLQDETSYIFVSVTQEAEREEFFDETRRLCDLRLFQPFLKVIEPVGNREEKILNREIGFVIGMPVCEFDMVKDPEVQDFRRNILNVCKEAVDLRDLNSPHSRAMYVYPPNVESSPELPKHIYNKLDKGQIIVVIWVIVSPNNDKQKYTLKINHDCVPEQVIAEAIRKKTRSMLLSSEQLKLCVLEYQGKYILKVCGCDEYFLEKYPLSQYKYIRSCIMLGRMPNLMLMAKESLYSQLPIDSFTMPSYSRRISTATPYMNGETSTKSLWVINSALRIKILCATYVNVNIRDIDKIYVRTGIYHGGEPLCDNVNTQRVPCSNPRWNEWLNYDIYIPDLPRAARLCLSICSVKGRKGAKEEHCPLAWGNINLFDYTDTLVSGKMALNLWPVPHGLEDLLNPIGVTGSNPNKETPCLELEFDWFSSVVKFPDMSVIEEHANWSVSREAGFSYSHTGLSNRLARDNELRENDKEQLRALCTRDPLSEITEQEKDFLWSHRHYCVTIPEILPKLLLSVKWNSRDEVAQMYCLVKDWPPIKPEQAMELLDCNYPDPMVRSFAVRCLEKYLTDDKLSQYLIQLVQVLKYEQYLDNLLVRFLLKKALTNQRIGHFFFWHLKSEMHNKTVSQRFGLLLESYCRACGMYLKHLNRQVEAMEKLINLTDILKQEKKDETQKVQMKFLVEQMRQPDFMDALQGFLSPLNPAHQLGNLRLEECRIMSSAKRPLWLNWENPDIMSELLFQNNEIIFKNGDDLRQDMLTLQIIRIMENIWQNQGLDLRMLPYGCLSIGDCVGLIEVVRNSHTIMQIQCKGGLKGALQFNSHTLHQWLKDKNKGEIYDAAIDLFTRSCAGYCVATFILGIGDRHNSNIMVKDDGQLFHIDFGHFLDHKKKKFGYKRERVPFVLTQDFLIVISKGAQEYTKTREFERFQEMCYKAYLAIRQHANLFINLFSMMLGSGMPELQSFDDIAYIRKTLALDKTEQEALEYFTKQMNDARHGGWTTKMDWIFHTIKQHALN
Sequence of PI3 Kinase (p110a(H1047R)/p85a)(m) (P26450 whole entry partner): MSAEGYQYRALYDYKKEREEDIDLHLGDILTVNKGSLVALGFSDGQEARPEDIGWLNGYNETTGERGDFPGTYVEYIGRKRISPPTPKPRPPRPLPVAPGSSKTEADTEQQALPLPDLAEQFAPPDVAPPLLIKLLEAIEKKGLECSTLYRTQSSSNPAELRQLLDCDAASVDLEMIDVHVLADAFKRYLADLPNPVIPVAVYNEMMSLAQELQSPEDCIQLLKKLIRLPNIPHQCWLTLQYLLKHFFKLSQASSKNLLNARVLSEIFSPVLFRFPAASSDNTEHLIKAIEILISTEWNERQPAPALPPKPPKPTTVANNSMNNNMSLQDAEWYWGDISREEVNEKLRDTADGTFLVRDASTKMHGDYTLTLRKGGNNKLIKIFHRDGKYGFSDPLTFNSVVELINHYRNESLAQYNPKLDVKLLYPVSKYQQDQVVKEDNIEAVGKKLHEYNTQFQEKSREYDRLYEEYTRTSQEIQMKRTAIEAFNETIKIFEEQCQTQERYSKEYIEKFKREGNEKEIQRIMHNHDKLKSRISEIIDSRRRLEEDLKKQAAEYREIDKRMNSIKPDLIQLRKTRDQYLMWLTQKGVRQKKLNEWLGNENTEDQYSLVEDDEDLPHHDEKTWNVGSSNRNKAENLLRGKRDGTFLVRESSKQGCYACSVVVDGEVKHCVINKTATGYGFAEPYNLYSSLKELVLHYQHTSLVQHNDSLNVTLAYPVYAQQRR
Protocol: as §1

[25] = target: MAP4K5(h) (Homo sapiens (Human), UniProt Q9Y4K4)
Protocol: as §1

[26] = target: CDKL4(h) (Homo sapiens (Human), UniProt Q5MAI5)
Protocol: as §1

[27] = target: CaMKIγ(h) (Homo sapiens (Human), UniProt Q96NX5)
Protocol: as §1

[28] = target: DDR2(h) (Homo sapiens (Human), UniProt Q16832)
Protocol: as §1

[29] = target: MuSK(h) (Homo sapiens (Human), UniProt O15146)
Protocol: as §1

[30] = target: FGFR1(V561M)(h) (Homo sapiens (Human), UniProt P11362, V561M)
Sequence of FGFR1(V561M)(h) (P11362 22-822 V561M): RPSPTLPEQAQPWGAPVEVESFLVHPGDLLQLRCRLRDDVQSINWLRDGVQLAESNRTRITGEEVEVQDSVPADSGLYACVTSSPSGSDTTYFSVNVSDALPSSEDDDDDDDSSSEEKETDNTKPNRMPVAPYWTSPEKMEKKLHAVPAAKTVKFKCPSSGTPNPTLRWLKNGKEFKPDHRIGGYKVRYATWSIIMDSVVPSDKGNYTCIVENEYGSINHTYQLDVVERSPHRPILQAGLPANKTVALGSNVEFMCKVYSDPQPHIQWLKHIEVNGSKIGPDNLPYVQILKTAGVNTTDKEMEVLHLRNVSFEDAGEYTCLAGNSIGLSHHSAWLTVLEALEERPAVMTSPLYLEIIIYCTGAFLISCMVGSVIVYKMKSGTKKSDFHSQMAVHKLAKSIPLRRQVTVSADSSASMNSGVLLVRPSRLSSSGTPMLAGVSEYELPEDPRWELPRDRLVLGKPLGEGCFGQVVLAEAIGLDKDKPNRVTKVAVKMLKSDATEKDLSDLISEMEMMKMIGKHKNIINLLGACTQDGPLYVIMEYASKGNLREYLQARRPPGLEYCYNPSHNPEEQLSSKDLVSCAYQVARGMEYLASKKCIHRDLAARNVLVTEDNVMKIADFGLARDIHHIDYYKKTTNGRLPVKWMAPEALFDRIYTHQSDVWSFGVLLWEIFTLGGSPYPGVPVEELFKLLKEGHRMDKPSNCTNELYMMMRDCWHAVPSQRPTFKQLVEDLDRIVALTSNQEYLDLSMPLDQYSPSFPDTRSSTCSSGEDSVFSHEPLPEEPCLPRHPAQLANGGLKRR
Protocol: as §1

[31] = target: NEK7(h) (Homo sapiens (Human), UniProt Q8TDX7)
Protocol: as §1

[32] = target: TSSK1(h) (Homo sapiens (Human), UniProt Q9BXA7)
Protocol: as §1

[33] = target: EphA7(h) (Homo sapiens (Human), UniProt Q15375)
Protocol: as §1

`C[C@H](NC(=O)c1c[nH]c2ccc(-c3ccc4nc(NC(=O)C5CC5)sc4c3)cc12)c1cccc(F)c1` [Compound 34, (S)-5-(2-(cyclopropanecarboxamido)benzo[d]thiazol-6-yl)-N-(1-(3-fluorophenyl)ethyl)-1H-indole-3-carboxamide] gave an Inhibition ratio [1] of 3%, an Inhibition ratio [2] of 65% and an Inhibition ratio [3] of 17%. The Inhibition ratio [4] was 15%, the Inhibition ratio [5] was 12% and the Inhibition ratio [6] was 98%. For the same compound, the Inhibition ratio [7] was 97%, the Inhibition ratio [8] was 17% and the Inhibition ratio [9] was 3%. For the same compound, the Inhibition ratio [10] was 63%, the Inhibition ratio [11] was 83% and the Inhibition ratio [12] was 49%. For the same compound, the Inhibition ratio [13] was 100%, the Inhibition ratio [14] was −30% and the Inhibition ratio [15] was 2%. For the same compound, the Inhibition ratio [16] was 4%, the Inhibition ratio [17] was 1% and the Inhibition ratio [18] was 77%. The Inhibition ratio [19] was 44%, the Inhibition ratio [20] was 8% and the Inhibition ratio [21] was 87%. For the same compound, the Inhibition ratio [22] was 63%, the Inhibition ratio [23] was 13% and the Inhibition ratio [24] was 17%. The Inhibition ratio [25] was 64%, the Inhibition ratio [26] was 56% and the Inhibition ratio [27] was 7%. For the same compound, the Inhibition ratio [28] was 76%, the Inhibition ratio [29] was 88% and the Inhibition ratio [30] was 80%. The Inhibition ratio [31] was 4%, the Inhibition ratio [32] was 12% and the Inhibition ratio [33] was 96%.

`C[C@H](NC(=O)c1cn(C)c2ccc(-c3ccn4nc(NC(=O)C5CC5)nc4c3)cc12)c1cccc(F)c1` [Compound 94, (S)-5-(2-(cyclopropanecarboxamido)-[1,2,4]triazolo[1,5-a]pyridin-7-yl)-N-(1-(3-fluorophenyl)ethyl)-1-methyl-1H-indole-3-carboxamide] showed an Inhibition ratio/% [1] of 32%, an Inhibition ratio/% [2] of −5% and an Inhibition ratio/% [3] of −16%. It also gave an Inhibition ratio/% [4] of 65%, an Inhibition ratio/% [5] of 52% and an Inhibition ratio/% [6] of 69%. It also gave an Inhibition ratio/% [7] of 29%, an Inhibition ratio/% [8] of −20% and an Inhibition ratio/% [9] of 22%. It also gave an Inhibition ratio/% [10] of −13%, an Inhibition ratio/% [11] of −12% and an Inhibition ratio/% [12] of 27%. For the same compound, the Inhibition ratio/% [13] was 100%, the Inhibition ratio/% [14] was 51% and the Inhibition ratio/% [15] was 51%. It also gave an Inhibition ratio/% [16] of −16%, an Inhibition ratio/% [17] of 36% and an Inhibition ratio/% [18] of 77%. It also gave an Inhibition ratio/% [19] of 42%, an Inhibition ratio/% [20] of 26% and an Inhibition ratio/% [21] of 11%. The Inhibition ratio/% [22] was 40%, the Inhibition ratio/% [23] was 1% and the Inhibition ratio/% [24] was 47%. For the same compound, the Inhibition ratio/% [25] was 6%, the Inhibition ratio/% [26] was 76% and the Inhibition ratio/% [27] was −13%. The Inhibition ratio/% [28] was 20%, the Inhibition ratio/% [29] was 13% and the Inhibition ratio/% [30] was 45% and 30%. It also gave an Inhibition ratio/% [31] of 43%, an Inhibition ratio/% [32] of −8% and an Inhibition ratio/% [33] of 20%.

Reference: patent US20230365546A1, “5-SUBSTITUTED INDOLE 3-AMIDE DERIVATIVES, PREPARATION METHOD AND USE THEREOF” (ORIGIANT PHARMACEUTICAL CO., LTD, priority 2020, published 2023)
